Source: patent US6352713B1, “Nutritional composition” (Drugtech Corporation, priority 1999, dated 2002)

Experiments:
[1] = pH of the solution/suspension of a composition in deionized water; format: physicochemical; settings: ascorbic acid/calcium carbonate mixtures; amount equivalent to 50 mg ascorbic acid in 25 ml deionized water, stirred ten minutes
Procedure: As discussed herein, the pH of the present composition is measured by any suitable means well known to persons of ordinary skill in the art. […] Another non-limiting exemplary technique for measuring the pH of a dosage form is to use a glass mortar and pestle to grind one tablet until a finely divided uniform powder is obtained. The finely divided uniform powder is then added to an appropriate vessel and the pH is then determined as in manner of the preceding example.
To the beaker was added 25 ml of deionized water. The contents of the beaker were then vigorously stirred for ten minutes. The pH of the resultant solution/suspension was then measured.
To the beaker was added 25 ml of deionized water. The contents were then vigorously stirred for ten minutes. The pH of the resultant solution/suspension was then measured.
In comparison, a conventional chewable prenatal supplement containing 1000 IU of vitamin A, 400 IU of vitamin D3, 11 IU of vitamin E, 120 mg of vitamin C, 1 mg of folic acid, 2 mg of vitamin B1, 3 mg of riboflavin, 20 mg of niacin, 10 mg of vitamin B6, 12 mcg of vitamin B12 and 29 mg of iron was obtained. […] To the beaker was added 25 ml of deionized water. The contents were then vigorously stirred for ten minutes or until dissolved. The pH of the resultant solution/suspension was then measured.

[2] = cited from earlier work

pH Value [1]	Compound	share of dietary folic acid available to the body (bioavailability) [2]
3.32	O=C1O[C@H]([C@@H](O)CO)C(O)=C1O [Ascorbic Acid]	–
–	Nc1nc2ncc(CNc3ccc(C(=O)N[C@@H](CCC(=O)O)C(=O)O)cc3)nc2c(=O)[nH]1 [Folic acid, pteroylglutamic acid]	about half
